According to patent US9133434B1, “Grass endophyte” (Cropmark Seeds Ltd., priority 2012, dated 2015):

Columns and labels:
[1] = test system: Neotyphodium uncinatum, var. U2; test: Colony: resistance to benomyl on growth (PDA plates with benomyl); type: cell-based; details: benomyl 1, 5, 10, 50 and 100 ppm in PDA, recorded after 4 weeks; scale absent or very weak / weak / medium / strong / very strong
Description: Neotyphodium uncinatum, var. U2 was isolated from line FP102 of Festuca pratensis (Meadow fescue). Line FP102 originally came from Norway in 1999. Characteristics for Neotyphodium uncinatum, var. U2 were determined and compared with other varieties. For these tests, the endophytic fungus isolated was cultured on 1.5% (w/v) potato dextrose agar at 20° C. in the dark (Christensen M J, Latch G C M, Tapper S A 1991: Variation within isolates of Acremonium endophytes from perennial ryegrasses. Mycol. Res. 95: 918-923). Length of cultivation was generally standardized at 4 weeks, but may be varied according to the isolate. Five plates of each strain were grown.
(§1) Plates of PDA containing different concentrations of the fungicide benomyl were prepared as outlined by Christensen et al. (1991). Benlate(Methyl[1-[(butylamino)carbonyl]-1H-benzimidazol-2-yl]carbamate) (50% WP) was added to PDA prior to sterilization. Concentrations of benomyl were adjusted to 1, 5, 10, 50 and 100 ppm. Five duplicate plates were inoculated with a colony plug.

[2] = test system: Neotyphodium uncinatum, var.UNC1; test: Effect of benomyl on growth, comparison of varieties; type: cell-based; details: comparison of the two varieties
Description: as §1
The two varieties were similar in tested characteristics of colony sporulation, colony sectoring, colony color (upper surface), colony shape, colony immersion or margin in agar, colony texture, aerial mycelium density and type, and effect of benomyl on growth. The two varieties differed in […] and rate of growth.

Compound: CCCCNC(=O)n1c(NC(=O)OC)nc2ccccc21 [benomyl, Methyl[1-[(butylamino)carbonyl]-1H-benzimidazol-2-yl]carbamate]
- Colony: resistance to benomyl on growth [1]: strong
- effect of benomyl on growth, var.UNC1 compared with var. U2 [2]: similar
